Assay results from patent US20230115176A1 (Ra Pharmaceuticals, Inc., priority 2019, published 2023).

What was measured:
[1] = target: human C5 complement protein (Homo sapiens, UniProt P01031); experiment: Surface plasmon resonance (SPR), immobilized human C5, 37° C. (Example 12, Table 21); type: binding; conditions: where a range of compound concentrations were analyzed, the lowest value obtained
Text: (§1) Compound CU0136 is a racemic mixture of Compound CU0186 and CU0187. Numbers in parenthesis following compound numbers indicate alternate enantiomers (as distinguished by retention time during chromatographical separation).

Human C5 [2] = target: T1, Human C5 (Homo sapiens, UniProt P01031); experiment: Red blood cell (RBC) hemolysis assay, luminescent (Example 13, Table 22); type: cell-based; conditions: sheep EA cells, […] C5-depleted human serum, 0.5 nM human C5, 1 hour 37° C., luminescence; note: 1.5% C5-depleted human serum
T1 construct: purchased Complement Technology
Text: as §1

Human C5 [3] = target: T1, Human C5; experiment: Surface plasmon resonance (SPR), compounds on immobilized human C5 (Example 2, Table 5); type: binding; conditions: lowest value where a range of compound concentrations were analyzed
Experimental: Surface plasmon resonance (SPR) technology was used to evaluate affinity, specificity, and kinetics of interactions between compounds and complement protein C5 in real time without the need for labeling.
SensiQ FE SPR system (SensiQ Technologies, Oklahoma City, Okla.) was used to provide sensitive and accurate detection of binding of small molecules to the very large C5 protein (MW=195,000 Da). The chip was prepared by preconditioning the sensor according to the protocol of the SensiQ FE using 10 mM HCl, 50 mM NAOH and 0.1% SDS. The sensor chip was activated by using a mixture of fresh EDAC (1-ethyl-3-(-3-dimethylaminopropyl) carbodiimide) (Sigma Co., St. Louis, Mo.) and NHS (N-hydroxy succinimide) (Sigma Co., St. Louis, Mo.). Human C5 was surface immobilized to a Pioneer Biosensor chip via random amine coupling (>12,000 RU) which makes use of the N-terminus and ε-amino groups of lysine residues of the protein ligand. Immobilization was done by injecting 30-40 μg/ml C5 in 10 mM NaAc pH 4.5 onto designated channels at a rate of 10 μL/minute for 12 minutes, targeting RL>12000 RU for small molecules.
Compounds were diluted in DMSO in a format of 100-fold final concentration and 3-fold serial dilution (5 or 6 dilutions). The 100-fold compounds were transferred to one-fold DMSO-free assay buffer in the 96-well test plate. The compound solution was injected at a rate of 60 μL/minute for 30-60 seconds, followed by 60-90 seconds dissociation time, buffer flushing and/or priming. Blank solution (1% DMSO assay buffer) was run for every 6 injections of compounds. Double reference by subtracting both blank channel and reference channel was applied for data processing. Titration of C5 binding compounds to the C5-immobilized biosensor chip surface led to interactions between C5 and potential binders, and the resulting changes of surface refractive index were sensitively measured by the system.
SPR data were analyzed with the managing software provided by SensiQ and equilibrium dissociation constant (KD) values were determined for each compound. Where a range of compound concentrations were analyzed, the lowest value obtained is presented.

purified human C5 = purified human C5 (Homo sapiens, UniProt P01031); experiment: Red blood cell hemolysis assay, optical, absorbance 412 nm (Example 3, Table 6); type: cell-based; conditions: antibody-sensitized sheep erythrocytes, 1.5% human C5 depleted sera, 0.5 nM human C5; average where replicates
Sequence of purified human C5 (P01031 19-1676): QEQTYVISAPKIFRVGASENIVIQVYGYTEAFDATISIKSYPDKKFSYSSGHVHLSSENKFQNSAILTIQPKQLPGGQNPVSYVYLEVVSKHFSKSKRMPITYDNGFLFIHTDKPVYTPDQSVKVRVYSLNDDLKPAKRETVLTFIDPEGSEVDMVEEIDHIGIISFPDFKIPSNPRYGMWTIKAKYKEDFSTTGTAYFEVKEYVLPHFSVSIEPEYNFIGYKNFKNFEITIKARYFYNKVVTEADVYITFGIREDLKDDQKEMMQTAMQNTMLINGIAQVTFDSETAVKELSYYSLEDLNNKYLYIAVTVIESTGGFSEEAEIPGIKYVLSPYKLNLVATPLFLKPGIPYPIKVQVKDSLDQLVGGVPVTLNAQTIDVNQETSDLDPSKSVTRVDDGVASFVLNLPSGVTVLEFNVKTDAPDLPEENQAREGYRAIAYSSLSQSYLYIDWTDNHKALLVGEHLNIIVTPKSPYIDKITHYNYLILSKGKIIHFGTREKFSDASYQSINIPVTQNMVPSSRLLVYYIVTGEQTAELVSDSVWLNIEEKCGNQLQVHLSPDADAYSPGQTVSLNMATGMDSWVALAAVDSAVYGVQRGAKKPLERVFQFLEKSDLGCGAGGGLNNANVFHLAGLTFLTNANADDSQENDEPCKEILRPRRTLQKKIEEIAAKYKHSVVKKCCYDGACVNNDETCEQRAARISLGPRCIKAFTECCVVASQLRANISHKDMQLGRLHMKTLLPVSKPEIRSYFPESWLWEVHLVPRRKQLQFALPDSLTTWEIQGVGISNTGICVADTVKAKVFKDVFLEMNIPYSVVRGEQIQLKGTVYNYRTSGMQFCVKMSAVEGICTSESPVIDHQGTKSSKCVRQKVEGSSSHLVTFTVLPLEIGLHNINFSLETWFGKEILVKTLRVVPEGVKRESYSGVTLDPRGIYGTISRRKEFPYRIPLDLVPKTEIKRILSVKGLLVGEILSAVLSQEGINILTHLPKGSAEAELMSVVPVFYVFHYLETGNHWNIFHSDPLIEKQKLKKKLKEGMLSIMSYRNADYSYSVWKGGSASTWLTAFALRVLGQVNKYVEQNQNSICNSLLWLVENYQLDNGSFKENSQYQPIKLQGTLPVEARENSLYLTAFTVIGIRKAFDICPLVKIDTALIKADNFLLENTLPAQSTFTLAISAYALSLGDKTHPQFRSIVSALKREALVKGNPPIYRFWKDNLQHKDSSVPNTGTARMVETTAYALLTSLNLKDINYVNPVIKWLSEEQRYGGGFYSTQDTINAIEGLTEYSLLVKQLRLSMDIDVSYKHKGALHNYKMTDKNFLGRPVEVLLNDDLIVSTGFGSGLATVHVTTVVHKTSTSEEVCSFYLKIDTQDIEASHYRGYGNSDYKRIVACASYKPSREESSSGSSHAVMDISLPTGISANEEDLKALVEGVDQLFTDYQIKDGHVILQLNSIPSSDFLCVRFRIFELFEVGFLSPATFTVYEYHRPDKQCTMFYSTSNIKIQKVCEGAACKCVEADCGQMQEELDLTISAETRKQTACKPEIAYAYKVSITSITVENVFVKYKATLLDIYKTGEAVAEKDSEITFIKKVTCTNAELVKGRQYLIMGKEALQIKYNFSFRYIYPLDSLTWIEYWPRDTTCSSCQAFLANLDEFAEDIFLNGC

T1 sequence (P01031 19-1676): as above
Sequence of human C5 complement protein (P01031 19-1676): as above

Kd [1] [nM] | Kd (Human C5 [3]) [nM] | SMILES | IC50 (Human C5 [2]) [nM] | IC50 (purified human C5) [nM]
28 |  | CCCCCOc1cc(N2CCCN(Cc3ccnc4c3ccn4C3CCN(C)C3=O)C2=O)ccc1OC (single isomer, unassigned) [CU0039(1)] | 30 | 
6.5 |  | CCCCCOc1cc(N2CCCN(Cc3ccnc4c3ccn4C3CCN(C)C3=O)C2=O)ccc1OC (single isomer, unassigned) [CU0039(2)] | 30.1 | 
17 |  | CCCCCOc1cc(N2CCCN(Cc3ccnc4c3ccn4CC(=O)N3CC[C@@H](OC)C3)C2=O)ccc1OC [CU0041] | 55.2 | 
106 |  | CCCCCOc1cc(N2CCN(Cc3ccnc4c3ccn4CC(=O)N3CCOCC3)C2=O)ccc1OC [CU0042] | 63.1 | 
16.5 |  | CCCCCOc1cc(N2CCCN(Cc3ccnc4c3ccn4CC(=O)N3CCOCC3)C2=O)ccc1OC [CU0043] | 29.5 | 
35.5 |  | CCCCCOc1cc(N2CCCN(Cc3ccnc4c3ccn4CC(=O)N3CCOCC3)C2=O)ccc1C1CC1 [CU0044] | 87.7 | 
26 |  | CCCCCOc1cc(N2CCCN([C@@H](C)c3ccnc4c3ccn4CC(=O)N3CCOCC3)C2=O)ccc1OC [CU0045] | 32.8 | 
15.5 |  | CCCCCOc1cc(N2CCCN(Cc3ccnc4c3ccn4CC(=O)N3CCOC(CCO)C3)C2=O)ccc1OC (stereo not drawn) [CU0046] | 38.9 | 
18.5 |  | CCCCCOc1cc(N2CCCN(Cc3ccnc4c3ccn4CC(=O)N3CCOC(COC)C3)C2=O)ccc1OC (stereo not drawn) [CU0048] | 57.3 | 
21 |  | CCCCCOc1cc(N2CCCN(Cc3ccnc4c3ccn4CC(=O)N3CCOC(C)(COC)C3)C2=O)ccc1OC (stereo not drawn) [CU0049] | 44.7 | 
9 |  | CCCCCOc1cc(N2CCCN(Cc3ccnc4c3ccn4CC(=O)N3CCOC(CN(C)C)C3)C2=O)ccc1OC (stereo not drawn) [CU0050] | 18 | 
8 |  | CCCCCOc1cc(N2CCCN(Cc3ccnc4c3ccn4CC(=O)N3CCOC(CN4CCCC4)C3)C2=O)ccc1OC (stereo not drawn) [CU0051] | 45.9 | 
10.5 |  | CCCCCOc1cc(N2CCCN([C@@H](C)c3ccnc4c3ccn4CC(=O)N3CCCOCC3)C2=O)ccc1OC [CU0055] | 31.2 | 
23 |  | CCCCCOc1cc(N2CCCN(Cc3ccnc4c3ccn4CC(=O)N3CCN(C4CC4)CC3)C2=O)ccc1OC [CU0056] | 48.8 | 
18 |  | CCCCCOc1cc(N2CCCN(Cc3ccnc4c3ccn4CC(=O)N3CCN(CCOC)CC3)C2=O)ccc1OC [CU0057] | 22.4 | 
13.5 |  | CCCCCOc1cc(N2CCCN(Cc3ccnc4c3ccn4CC(=O)N3CCNC(=O)C3)C2=O)ccc1OC [CU0059] | 32.9 | 
14 |  | CCCCCOc1cc(N2CCCN(Cc3ccnc4c3ccn4CC(=O)N3CCN(C)C(=O)C3)C2=O)ccc1OC [CU0060] | 40.3 | 
13 |  | CCCCCOc1cc(N2CCCN(Cc3ccnc4c3ccn4CC(=O)N3CCN(C)C(=O)C3)C2=O)ccc1C1CC1 [CU0061] | 52.3 | 
17.5 |  | CCCCCOc1cc(N2CCCN(Cc3ccnc4c3ccn4CC(=O)N3CC(=O)N(C)C(C)C3)C2=O)ccc1OC (stereo not drawn) [CU0062] | 33.4 | 

Kd [1] [nM] | Kd (Human C5 [3]) [nM] | SMILES | IC50 (Human C5 [2]) [nM] | IC50 (purified human C5) [nM]
10.5 |  | CCCCCOc1cc(N2CCCN(Cc3cccc4c3ncn4CC(=O)N3CCN(C(C)=O)CC3)C2=O)ccc1OC [CU0063] | 28.3 | 
394 |  | CCCCCOc1cc(N2CCN(Cc3cccc4c3OCO4)C2=O)ccc1OC [CU0064] | 799 | 
370 |  | CCCCCOc1cc(N2CCCN(Cc3cccc4c3OCO4)C2=O)ccc1OC [CU0065] | 123 | 
2.4 |  | CCCCCOc1cc(N2CCCN(Cc3ccc(CC(=O)N4CCNC(=O)C4)cc3OC)C2=O)ccc1OC [CU0101] |  | 
 | 2600 | COc1ccc(NC(=O)N[C@@H](COC(N)=O)c2ccccc2)cc1OCCCC(C)C [SM0068, (R)-2-(3-(4-methoxy-3-((4-methylpentyl)oxyureido)-2-phenylethyl carbamate] |  | 7360
 | 140 | COc1ccc(NC(=O)Nc2ccccc2O)cc1OCCCC(C)C [SM0069] |  | 7720
 | 4800 | CC(C)CCCOc1cccc(NC(=O)N[C@@H](CO)c2ccccc2)c1 [SM0070, 1-[(1R)-2-hydroxy-1-phenyl-ethyl]-3-(3-isohexyloxyphenyl)urea] |  | 8600
 | 2100 | COc1ccc(NC(=O)N(C)CC(O)c2ccc(O)cc2)cc1OCCCC(C)C (stereo not drawn) [SM0071, 1-[2-hydroxy-2-(4-hydroxyphenyl)ethyl]-3-(3-isohexyloxy-4-methoxy-phenyl)-1-methyl-urea] |  | 8660
 | 8200 | COc1ccc(NC(=O)N[C@@H](CO)c2ccccc2)cc1OCCC(C)C [SM0072] |  | 8680
 | 3200 | COc1ccc(NC(=O)N[C@@H](CO)c2ccccc2)cc1C(F)(F)F [SM0073] |  | 9260
 | 3600 | COc1ccc(NC(=O)NCC(O)c2ccc(O)cc2)cc1OCCCC(C)C (stereo not drawn) [SM0074] |  | 9360
 | 1300 | CC(C)CCCOc1cc(NC(=O)N[C@@H](CO)c2ccccc2)ccc1F [SM0075] |  | 11500
 | 9400 | COc1ccc(NC(=O)NCc2cccc(C#N)c2)cc1OCCCC(C)C [SM0076] |  | 11700
 | 3600 | COc1ccc(NC(=O)NCC(O)c2ccccn2)cc1OCCCC(C)C (stereo not drawn) [SM0078] |  | 12600
 | 144 | COc1ccc(NC(=O)NCc2cnccn2)cc1OCCCC(C)C [SM0080] |  | 13000
 | 1600 | COc1ccc(NC(=O)NCC(O)c2ccccc2)cc1OCCCC(C)C (stereo not drawn) [SM0081] |  | 13000
 | 6400 | COc1ccc(NC(=O)N[C@@H](CO)c2ccccc2)cc1OCCOC(C)C [SM0083] |  | 15400
 | 310 | COCCCOc1cc(NC(=O)N[C@@H](CO)c2ccccc2)ccc1OC [SM0084] |  | 16100
 | 9900 | CCCCCc1cccc(NC(=O)N[C@@H](CO)c2ccccc2)c1 [SM0087] |  | 16700

More lines, now with the values behind:

SMILES | Kd [1] [nM] | Kd (Human C5 [3]) [nM] | IC50 (Human C5 [2]) [nM] | IC50 (purified human C5) [nM]
CCCCCOc1cc(N2CCN(Cc3ccccc3OC)C2=O)ccc1OC [CU0001] | 29.5 |  | 35.6 | 
CCCCCOc1cc(N2CCN(Cc3cc(F)ccc3OC)C2=O)ccc1OC [CU0002] | 83.5 |  | 42 | 
CCCCCOc1cc(N2CCCN(Cc3cc(F)ccc3OC)C2=O)ccc1OC [CU0003] | 14 |  | 28.4 | 
CCCCCOc1cc(N2CCN(Cc3ccc(C(C)(C)O)cc3OC)C2=O)ccc1OC [CU0004] | 10.5 |  | 12.1 | 
CCCCCOc1cc(N2CCCN(Cc3ccc(CCC(=O)N(CC)CC)cc3OC)C2=O)ccc1OC [CU0008] | 6.5 |  | 62.9 | 
CCCCCOc1cc(N2CCCN(Cc3ccccc3Cl)C2=O)ccc1OC [CU0010] | 74.5 |  | 34.9 | 
CCCCCOc1cc(N2CCN(Cc3cccc(F)c3Cl)C2=O)ccc1OC [CU0011] | 816 |  | 886 | 
CCCCCOc1cc(N2CCCN(Cc3cccc(F)c3Cl)C2=O)ccc1OC [CU0012] | 326 |  | 128 | 
CCCCCOc1cc(N2CCN(Cc3cc(F)ccc3Cl)C2=O)ccc1OC [CU0013] | 454 |  | 602 | 
CCCCCOc1cc(N2CCCN(Cc3cc(F)ccc3Cl)C2=O)ccc1OC [CU0014] | 174 |  | 77.6 | 
CCCCCOc1cc(N2CCN(Cc3cccnc3OC)C2=O)ccc1OC [CU0017] | 188 |  | 106 | 
CCCCCOc1cc(N2CCCN(Cc3cccnc3OC)C2=O)ccc1OC [CU0018] | 27.5 |  | 40.6 | 
CCCCCOc1cc(N2CCCN(Cc3cccc4c3ccn4C3CCN(C)C3=O)C2=O)ccc1OC (stereo not drawn) [CU0020] | 3 |  | 17.2 | 
CCCCCOc1cc(N2CCCN(Cc3cccc4c3ccn4CC3(O)CCNCC3)C2=O)ccc1OC [CU0021] | 1.5 |  | 14.5 | 
CCCCCOc1cc(N2CCCN(Cc3cccc4c3ccn4CC3(O)CCN(C)CC3)C2=O)ccc1OC [CU0022] | 2.9 |  | 17.1 | 
CCCCCOc1cc(N2CCCN(Cc3cccc4c3ccn4Cc3nncn3C)C2=O)ccc1OC [CU0024] | 5 |  | 12.9 | 
CCCCCOc1cc(N2CCCN(Cc3cccc4c3ccn4CC(=O)N(C)C)C2=O)ccc1OC [CU0025] | 5 |  | 13.6 | 
COc1ccc(N2CCCN(Cc3cccc4c3ccn4CC(=O)N(C)C)C2=O)cc1OCCCC(C)(F)F [CU0027] | 14 |  | 22.5 | 
CCCCCOc1cc(N2CCCN(Cc3cccc4c3ccn4CC(=O)N3CCNC(=O)C3)C2=O)ccc1OC [CU0028] | 5 |  | 8.9 | 
CCCCCOc1cc(N2CCCN(Cc3cccc4c3ccn4CC(=O)N3CCOCC3)C2=O)ccc1OC [CU0029] | 2.1 |  | 15 | 
CCCCCOc1cc(N2CCCN(Cc3cccc4c3ccn4CC(=O)N3CCOC(C)(C)C3)C2=O)ccc1OC [CU0030] | 1.8 |  | 26.9 | 
CCCCCOc1cc(N2CCCN(Cc3cccc4c3ccn4CC(=O)N3CCOC(COC)C3)C2=O)ccc1OC (stereo not drawn) [CU0031] | 6 |  | 15.7 | 
CCCCCOc1cc(N2CCCN(Cc3ccnc4[nH]ccc34)C2=O)ccc1OC [CU0032] | 47.5 |  | 51.8 | 
CCCCCOc1cc(N2CCN(Cc3ccnc4c3ccn4CC(=O)N(C)C)C2=O)ccc1OC [CU0033] | 62 |  | 136 | 
CCCCCOc1cc(N2CCCN(Cc3ccnc4c3ccn4CC(=O)N(C)C)C2=O)ccc1OC [CU0035] | 33.5 |  | 30.8 | 
CCCCCOc1cc(N2CCCN(Cc3ccnc4c3ccn4CC(=O)N(C)C)C2=O)ccc1C1CC1 [CU0036] | 25 |  | 121 | 
CCCCCOc1cc(N2CCCN([C@@H](C)c3ccnc4c3ccn4CC(=O)N(C)C)C2=O)ccc1OC [CU0037] | 15.5 |  | 47.1 | 
